We go through two compounds from patent US20260199263A1, “Composition For The Modified Release Of Biological Polyamines, In Particular Spermidine” (GIULIANI S.P.A., priority 2022, published 2026).

Data set [1] is described as follows: Solubility evaluation of PEA and SPE in water and ethanol with emulsifiers (tests A-H). In kind it is physicochemical. The settings on record: for solubility: thermodynamic from solid; for dissolution behaviour in test H: test H: 50 mg PEA + 50 mg SUC in 95% vol EtOH (about 2.5 g), then 500 mg water, then 50 mg SPE. Here is the method:
First of all, an evaluation of the solubility of PEA and SPE in water and ethanol was carried out in the presence of two different concentrations of the two emulsifiers.
In both test C and test D, water was added initially up to 1 ml, then to 2 ml and finally to 5 ml.
In test H, 50 mg of PEA (crushed in the mortar because it was initially in the form of flakes) was placed in a 10 ml test tube and 50 mg of SUC were added.
300 mg of water were then added. At the time of addition, cloudiness was observed, but when heated it returned to being a clear solution again. Another 200 mg of water were then added, and the same behavior was observed. This time, it was necessary to heat for a longer time to obtain a clear solution again.
1) PEA was initially present in the form of flakes. It was reduced in size in the mortar before testing.
2) Emulsifiers were added to PEA before adding solvents.

The conditions of data set [2]: data known from the literature, cited from earlier work.

Converted amounts (≈) assume the structure as drawn. Like-named read-outs stand apart in the source and are kept apart here.

In the case of `CCCCCCCCCCCCCCCC(=O)NCCO` [PEA, N-(2-hydroxyethyl)hexadecanamide], the solubility in data set [1] (ethanol, organic solvent or mixture, test G: 32 mg PEA, EtOH q.s. to 2 g, read-out: solubility of PEA in ethanol) was determined as 16 mg/mL (≈ 53.4 mM). For the same compound, the “solubility of PEA in water” value in data set [1] (test B: 50 mg PEA, H2O q.s. to 1 g) is reported as “insolubility”. Besides, the “solubility of PEA in water with emulsifier MGE” value in data set [1] (test C: PEA/MGE=10:1 w/w, H2O up to 5 ml) was “does not seem to improve the solubility”; in data set [1] (test E: PEA/MGE 1:1 w/w), “comparable to test C”. Moreover, the “solubility of PEA in water with emulsifier SUC” value in data set [1] (test D: PEA/SUC=10:1 w/w, H2O up to 5 ml) is on record as “does not seem to improve the solubility”; in data set [1] (test F: PEA/SUC 1:1 w/w) it was “appears to increase slightly, but not sufficiently”. Also, the “dissolution behaviour in test H” value in data set [1] (heated) is given as “perfectly clear solution”. Moreover, the Hot solubility entry in data set [1] (tests C and D, PEA in water with emulsifier 10:1 w/w, heated) is “does not appear to have significant improvements”. Also, the solubility in ethanol in data set [2] was 16 mg/mL (≈ 53.4 mM). Moreover, the solubility in water entry in data set [2] (in words) is “insoluble”.

As to `NCCCCNCCCN` [SPE, N-(3-aminopropyl)butane-1,4-diamine·3HCl], the “dissolution behaviour in test H” value in data set [1] (heated) is reported as “dissolved immediately”. In data set [1] (water, test A: 50 mg SPE, H2O q.s. to 1 g, read-out: solubility of SPE in water), the solubility is 50 mg/mL. Also, the solubility in water in data set [2] is 50 mg/mL.

In general, solubility refers to how much of the substance goes into solution per volume.
